For four molecules, inhibition and IC50 results are on record in ChEMBL document CHEMBL2057136, “Discovery of MEK/PI3K dual inhibitor via structure-based virtual screening” (Bioorg Med Chem Lett, 2012).

The target of assay [1] is T1, Dual specificity mitogen-activated protein kinase kinase 1 (Homo sapiens, UniProt Q02750). As to the kind of experiment: Inhibition of MEK1 at 10 uM using [gamma32P]ATP by radiometric kinase assay.
Assay [2] addresses T1, Dual specificity mitogen-activated protein kinase kinase 1. As to the kind of experiment: Inhibition of MEK1 using [gamma32P]ATP by radiometric kinase assay.
The target of assay [3] is Phosphatidylinositol 4,5-bisphosphate 3-kinase catalytic subunit alpha isoform (Homo sapiens, UniProt P42336). Description: Inhibition of PI3Kalpha using [gamma32P]ATP by radiometric kinase assay.
In assay [4] the target is Dual specificity mitogen-activated protein kinase kinase 2 (Homo sapiens, UniProt P36507). As to the kind of experiment: Inhibition of MEK2 using [gamma32P]ATP by radiometric kinase assay.
Dual specificity mitogen-activated protein kinase kinase 2, sequence (P36507 whole entry): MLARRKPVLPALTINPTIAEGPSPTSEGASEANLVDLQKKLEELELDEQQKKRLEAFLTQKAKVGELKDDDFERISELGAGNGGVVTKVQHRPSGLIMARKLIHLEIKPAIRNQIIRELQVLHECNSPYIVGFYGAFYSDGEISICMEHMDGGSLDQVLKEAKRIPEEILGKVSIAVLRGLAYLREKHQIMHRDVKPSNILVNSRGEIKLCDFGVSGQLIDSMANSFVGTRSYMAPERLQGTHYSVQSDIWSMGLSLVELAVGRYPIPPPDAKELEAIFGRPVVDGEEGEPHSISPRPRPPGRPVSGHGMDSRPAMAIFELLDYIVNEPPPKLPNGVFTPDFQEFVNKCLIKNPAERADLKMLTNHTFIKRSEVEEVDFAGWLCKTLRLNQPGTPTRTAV

T1 sequence (Q02750 whole entry): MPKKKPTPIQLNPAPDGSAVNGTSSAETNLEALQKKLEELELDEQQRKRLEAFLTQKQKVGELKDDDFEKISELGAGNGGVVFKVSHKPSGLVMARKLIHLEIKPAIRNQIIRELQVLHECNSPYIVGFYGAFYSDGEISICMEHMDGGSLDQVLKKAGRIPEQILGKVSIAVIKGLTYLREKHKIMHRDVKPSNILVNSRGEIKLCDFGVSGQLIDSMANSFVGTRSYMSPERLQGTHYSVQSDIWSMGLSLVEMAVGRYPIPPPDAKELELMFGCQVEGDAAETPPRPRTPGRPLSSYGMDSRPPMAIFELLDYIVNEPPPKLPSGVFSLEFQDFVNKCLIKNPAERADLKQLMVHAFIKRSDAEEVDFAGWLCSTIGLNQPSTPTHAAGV
Phosphatidylinositol 4,5-bisphosphate 3-kinase catalytic subunit alpha isoform, sequence (P42336 whole entry, canonical isoform): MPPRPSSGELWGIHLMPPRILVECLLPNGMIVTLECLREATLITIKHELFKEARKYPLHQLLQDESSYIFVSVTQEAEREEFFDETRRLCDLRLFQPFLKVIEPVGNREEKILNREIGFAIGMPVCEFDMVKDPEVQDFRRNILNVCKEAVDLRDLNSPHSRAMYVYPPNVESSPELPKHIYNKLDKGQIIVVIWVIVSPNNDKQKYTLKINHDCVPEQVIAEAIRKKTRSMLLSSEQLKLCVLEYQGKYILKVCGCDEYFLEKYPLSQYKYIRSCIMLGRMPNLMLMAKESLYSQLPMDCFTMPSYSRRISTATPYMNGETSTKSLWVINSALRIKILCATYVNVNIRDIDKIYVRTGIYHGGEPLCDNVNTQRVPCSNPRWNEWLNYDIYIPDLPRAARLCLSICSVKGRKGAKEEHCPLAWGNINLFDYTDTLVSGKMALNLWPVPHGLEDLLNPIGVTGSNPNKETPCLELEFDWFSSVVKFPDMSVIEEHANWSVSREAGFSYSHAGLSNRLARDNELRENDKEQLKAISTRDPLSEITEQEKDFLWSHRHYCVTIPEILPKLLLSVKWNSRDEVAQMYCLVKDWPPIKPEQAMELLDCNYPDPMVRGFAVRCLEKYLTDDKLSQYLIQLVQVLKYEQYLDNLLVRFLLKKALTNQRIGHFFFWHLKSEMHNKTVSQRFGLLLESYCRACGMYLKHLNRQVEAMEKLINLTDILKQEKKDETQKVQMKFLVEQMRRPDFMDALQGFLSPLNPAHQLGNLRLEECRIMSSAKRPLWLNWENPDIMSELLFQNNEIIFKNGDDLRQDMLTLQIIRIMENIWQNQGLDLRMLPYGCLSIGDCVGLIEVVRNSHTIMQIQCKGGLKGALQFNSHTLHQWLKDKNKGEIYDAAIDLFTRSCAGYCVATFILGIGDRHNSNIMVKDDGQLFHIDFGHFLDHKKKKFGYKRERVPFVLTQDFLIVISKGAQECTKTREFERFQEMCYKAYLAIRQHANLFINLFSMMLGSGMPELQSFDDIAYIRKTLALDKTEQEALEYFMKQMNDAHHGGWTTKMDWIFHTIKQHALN

A word on the inhibition: it is the change of the read-out against control, counted positive when it falls. High values mean a strong effect, low ones a weak effect. Usually IC50 stands for the concentration needed to halve the response being measured. In the case of `N=C1/C(=C\c2coc3ccccc3c2=O)C(=O)N=C2SC(c3ccc(O)cc3)=NN12`, the inhibition in assay [1] was > 30%. Besides, the results for the IC50 in assay [2] and in assay [3] were 8.5 µM and 10.2 µM, respectively.
Turning to `N=C1/C(=C\c2ccc(O)c(O)c2)C(=O)N=C2SC(c3ccc(O)cc3)=NN12`, the IC50 in assay [4] was 1.3 µM; in assay [2], 2.2 µM; in assay [3], 0.3 µM. Besides, the inhibition in assay [1] is > 30%.
Take `O=C(O)c1cccc(N2C(=O)/C(=C\c3cnc4ccccc4n3)SC2=S)c1`: in assay [1], the inhibition was > 30%. Further, the IC50 in assay [2] is 23.1 µM; in assay [3], > 30 µM.
The matching figures for `OCCNc1ncnc2oc(-c3ccccc3)c(-c3ccccc3)c12`: > 30%, 12.3 µM and > 30 µM.
